IC50 and Abtot/Ab42 selectivity ranges data for 26 compounds are collected here from patent US9932354B2, “Imidazo-oxadiazole and imidazo-thiadiazole derivatives” (Ares Trading S.A., priority 2012, dated 2018).

By IC50 is commonly meant the concentration that gives 50% inhibition.

Assay [1] has as its system Amyloid-β peptide release (Aβ42), HEK cells overexpressing APP (HEK-APP). Kind of assay: Amyloid-β peptide release (Aβ42) assay, AlphaLISA on supernatant of HEK-APP cells. It counts as cell-based. The following applies: Homo sapiens, HEK293, 24 h incubation with compound, read-out: Ab42 IC50 Ranges. Here is the method:
(§1) Amyloid-β Peptide Release (Aβ42 & AβTotal) Assay to Determine IC50 Values.
(§2) Compounds are dissolved in and diluted in 100% DMSO and incubated with HEK-APP cells for 24 h at 37° C. in 5% CO2. The supernatant from HEK-APP cells are mixed with antibodies: for Aβ42 detection: AlphaLISA Amyloid-β 1-42 Kit (Perkin Elmer AL203L) Anti-Amyloid β1-42-specific antibody acceptor beads, biotinylated anti-Amyloid-“β1-42” antibody and streptavidin (SA) donor beads diluted in AlphaLISA buffer (to the instructions of the supplier). For Aβ total detection: Custom Anti-Amyloid-βtotal acceptor beads (6E10 acceptor beads), biotinylated anti-Amyloid “β1-42” antibody (Perkin Elmer AL203L) and streptavidin (SA) donor beads diluted in AlphaLISA buffer (to the instructions of the supplier). After addition of supernatant to the antibody mix, the assay is incubated for 4.5 h. Amyloid-β peptide release (Aβ42 & AβTotal) is measured with a Pherastar FS (BMG) multimode reader using the alphascreen module.
(In general: In Alpha technology, singlet oxygen from a donor bead excites a nearby acceptor bead.)

The subject of assay [2] is Amyloid-β peptide release (AβTotal), HEK cells overexpressing APP (HEK-APP). Description: Amyloid-β peptide release (AβTotal) assay, AlphaLISA on supernatant of HEK-APP cells. In kind it is cell-based. To be noted: ratio Abtot vs Ab42, HEK-APP cells, 24 h. Here is the method:
as §1, §2

Turning to `COc1ccccc1CC(=O)Nc1ccc(-c2nn3c(C)ncc3o2)cc1` [Example 53, 2-(2-Methoxy-phenyl)-N-[4-(5-methyl-imidazo[5,1-b][1,2,4]oxadiazol-2-yl)-phenyl]-acetamide], the IC50 in assay [1] is 1000 to 2200 nM. In addition, in assay [2], the Abtot/Ab42 selectivity ranges entry was “d (d: 10 fold > selectivity)”.
For `Cc1ncc2oc(-c3ccc(NC(=O)NCc4ccccc4Cl)cc3)nn12` [Example 54, 1-(2-Chloro-benzyl)-3-[4-(5-methyl-imidazo[5,1-b][1,2,4]oxadiazol-2-yl)-phenyl]-urea] the same measures were 1000 to 2200 nM and “c (c: 50 fold > selectivity ≥ 10 fold)”.
For `Cc1ncc2oc(-c3ccc(NC(=O)C(C)c4cccc(C(F)(F)F)c4)cc3)nn12` (stereo not shown) [Example 55, N-(4-(5-methylimidazo[5,1-b][1,3,4]oxadiazol-2-yl)phenyl)-2-(3-(trifluoromethyl)phenyl)propanamide] the same measures were 1000 to 2200 nM and “c (c: 50 fold > selectivity ≥ 10 fold)”.
For `Cc1ncc2oc(-c3ccc(NC(=O)Cc4ccc(-c5ccccc5)cc4)cc3)nn12` [Example 56, 2-Biphenyl-4-yl-N-[4-(5-methyl-imidazo[5,1-b][1,2,4]oxadiazol-2-yl)-phenyl]-acetamide] the same measures were 100 to 500 nM and “a (a: selectivity ≥ 100 fold)”.
As to `Cc1ncc2oc(-c3ccc(NC(=O)Cc4ccc(C(C)(C)C)cc4)cc3)nn12` [Example 57, 2-(4-tert-Butyl-phenyl)-N-[4-(5-methyl-imidazo[5,1-b][1,2,4]oxadiazol-2-yl)-phenyl]-acetamide], the IC50 in assay [1] was 500 to 1000 nM. Further, the Abtot/Ab42 selectivity ranges result in assay [2] is reported as “b (b: 100 fold > selectivity ≥ 50 fold)”.
For `Cc1ncc2oc(-c3ccc(NC(=O)Nc4ccccc4C(F)(F)F)cc3)nn12` [Example 58, 1-[4-(5-Methyl-imidazo[5,1-b][1,2,4]oxadiazol-2-yl)-phenyl]-3-(2-trifluoromethyl-phenyl)-urea] the same measures were 500 to 1000 nM and “d (d: 10 fold > selectivity)”.
For `Cc1ncc2oc(-c3ccc(NC(=O)Nc4ccc(OC(F)(F)F)cc4)cc3)nn12` [Example 59, 1-[4-(5-Methyl-imidazo[5,1-b][1,2,4]oxadiazol-2-yl)-phenyl]-3-(4-trifluoromethoxy-phenyl)-urea] the same measures were 1000 to 2200 nM and “c (c: 50 fold > selectivity ≥ 10 fold)”.
For `Cc1ccccc1CC(=O)Nc1ccc(-c2nn3c(C)ncc3o2)cc1` [Example 60, N-[4-(5-Methyl-imidazo[5,1-b][1,2,4]oxadiazol-2-yl)-phenyl]-2-o-tolyl-acetamide] the same measures were 1000 to 2200 nM and “c (c: 50 fold > selectivity ≥ 10 fold)”.
Take `Cc1ncc2oc(-c3ccc(NC(=O)Cc4cc(F)cc(F)c4F)cc3)nn12` [Example 61, N-(4-(5-methylimidazo[5,1-b][1,3,4]oxadiazol-2-yl)phenyl)-2-(2,3,5-trifluorophenyl)acetamide]: the half-maximal inhibitory concentration (IC50) in assay [1] is 500 to 1000 nM. Moreover, in assay [2], the Abtot/Ab42 selectivity ranges result is “b (b: 100 fold > selectivity ≥ 50 fold)”.
For `Cc1ncc2oc(-c3ccc(NC(=O)Cc4ccc(Cl)cc4Cl)cc3)nn12` [Example 62, 2-(2,4-dichlorophenyl)-N-(4-(5-methylimidazo[5,1-b][1,3,4]oxadiazol-2-yl)phenyl)acetamide] the same measures were 500 to 1000 nM and “b (b: 100 fold > selectivity ≥ 50 fold)”.
For `Cc1ncc2oc(-c3ccc(NC(=O)Cc4cccc(Cl)c4)cc3)nn12` [Example 63, 2-(3-chlorophenyl)-N-(4-(5-methylimidazo[5,1-b][1,3,4]oxadiazol-2-yl)phenyl)acetamide] the same measures were 500 to 1000 nM and “b (b: 100 fold > selectivity ≥ 50 fold)”.
Consider `Cc1ncc2oc(-c3ccc(NC(=O)Cc4cccc(C#N)c4)cc3)nn12` [Example 64, 2-(3-cyanophenyl)-N-(4-(5-methylimidazo[5,1-b][1,3,4]oxadiazol-2-yl)phenyl)acetamide], for which the 50% inhibitory concentration (IC50) in assay [1] was in the range of 500 to 1000 nM. Moreover, the Abtot/Ab42 selectivity ranges entry in assay [2] was “b (b: 100 fold > selectivity ≥ 50 fold)”.
For `Cc1ncc2oc(-c3ccc(NC(=O)Cc4ccc(F)cc4Cl)cc3)nn12` [Example 65, 2-(2-chloro-4-fluorophenyl)-N-(4-(5-methylimidazo[5,1-b][1,3,4]oxadiazol-2-yl)phenyl)acetamide] the same measures were 1000 to 2200 nM and “c (c: 50 fold > selectivity ≥ 10 fold)”.
Turning to `Cc1ncc2oc(-c3ccc(NC(=O)Cc4cc(F)ccc4C(F)(F)F)cc3)nn12` [Example 66, 2-(5-fluoro-2-(trifluoromethyl)phenyl)-N-(4-(5-methylimidazo [5,1-b][1,3,4]oxadiazol-2-yl)phenyl)acetamide], in assay [1], the 50% inhibitory concentration (IC50) fell in the range of 1000 to 2200 nM. Also, the Abtot/Ab42 selectivity ranges result in assay [2] is reported as “c (c: 50 fold > selectivity ≥ 10 fold)”.
As to `Cc1ncc2oc(-c3ccc(NC(=O)Cc4c(Cl)cc(C(F)(F)F)cc4Cl)cc3)nn12` [Example 67, 2-(2,6-dichloro-4-(trifluoromethyl)phenyl)-N-(4-(5-methylimidazo [5,1-b][1,3,4]oxadiazol-2-yl)phenyl)acetamide], in assay [1], the IC50 fell in the range of 1000 to 2200 nM. In addition, the Abtot/Ab42 selectivity ranges entry in assay [2] is “c (c: 50 fold > selectivity ≥ 10 fold)”.
Regarding `COc1c(F)ccc(CC(=O)Nc2ccc(-c3nn4c(C)ncc4o3)cc2)c1F` [Example 68, 2-(2,4-difluoro-3-methoxyphenyl)-N-(4-(5-methylimidazo[5,1-b][1,3,4]oxadiazol-2-yl)phenyl)acetamide], in assay [1], the half-inhibitory concentration (IC50) lay within 500 to 1000 nM. Moreover, in assay [2], the Abtot/Ab42 selectivity ranges result was “b (b: 100 fold > selectivity ≥ 50 fold)”.
As for `COc1ccc(Cl)c(CC(=O)Nc2ccc(-c3nn4c(C)ncc4o3)cc2)c1F` [Example 69, 2-(6-chloro-2-fluoro-3-methoxyphenyl)-N-(4-(5-methylimidazo [5,1-b][1,3,4]oxadiazol-2-yl)phenyl)acetamide], the 50% inhibitory concentration (IC50) in assay [1] was 500 to 1000 nM. Moreover, the Abtot/Ab42 selectivity ranges entry in assay [2] was “b (b: 100 fold > selectivity ≥ 50 fold)”.
For `Cc1ncc2oc(-c3ccc(NC(=O)Cc4cccc(OCc5ccccc5)c4)cc3)nn12` [Example 70, 2-(3-(benzyloxy)phenyl)-N-(4-(5-methylimidazo[5,1-b][1,3,4]oxadiazol-2-yl)phenyl)acetamide] the same measures were 1000 to 2200 nM and “c (c: 50 fold > selectivity ≥ 10 fold)”.
For `Cc1ncc2oc(-c3ccc(NC(=O)Cc4cccc5ccccc45)cc3)nn12` [Example 71, N-(4-(5-methylimidazo[5,1-b][1,3,4]oxadiazol-2-yl)phenyl)-2-(naphthalen-1-yl)acetamide] the same measures were 500 to 1000 nM and “b (b: 100 fold > selectivity ≥ 50 fold)”.
For `Cc1ncc2oc(-c3ccc(Nc4ccnc(NCc5ccccc5)n4)cc3)nn12` [Example 72, N2-benzyl-N4-(4-(5-methylimidazo[5,1-b][1,3,4]oxadiazol-2-yl)phenyl)pyrimidine-2,4-diamine], the IC50 in assay [1] fell in the range of 1000 to 2200 nM. The Abtot/Ab42 selectivity ranges result in assay [2] is recorded as “d (d: 10 fold > selectivity)”.
For `Cc1ncc2oc(-c3ccc(NC(=O)Cc4csc5ccc(Cl)cc45)cc3)nn12` [Example 73, 2-(5-chlorobenzo[b]thiophen-3-yl)-N-(4-(5-methylimidazo[5,1-b] [1,3,4]oxadiazol-2-yl)phenyl)acetamide] the same measures were 1000 to 2200 nM and “c (c: 50 fold > selectivity ≥ 10 fold)”.
Regarding `Cc1ncc2oc(-c3ccc(Nc4nccc(NCc5ccccc5C(F)(F)F)n4)cc3)nn12` [Example 74, N2-(4-(5-methylimidazo[5,1-b][1,3,4]oxadiazol-2-yl)phenyl)-N4-(2-(trifluoromethyl)benzyl)pyrimidine-2,4-diamine], the IC50 in assay [1] is 1000 to 2200 nM. Also, the Abtot/Ab42 selectivity ranges result in assay [2] is given as “d (d: 10 fold > selectivity)”.
Turning to `Cc1cccc(CNc2ccnc(Nc3ccc(-c4nn5c(C)ncc5o4)cc3)n2)c1` [Example 75, N4-(3-methylbenzyl)-N2-(4-(5-methylimidazo[5,1-b][1,3,4]oxadiazol-2-yl)phenyl)pyrimidine-2,4-diamine], the IC50 in assay [1] lay within 1000 to 2200 nM. Also, in assay [2], the Abtot/Ab42 selectivity ranges entry is on record as “d (d: 10 fold > selectivity)”.
For `Cc1ncc2oc(-c3ccc(Nc4nccc(NCc5cccc(C(F)(F)F)c5)n4)cc3)nn12` [Example 76, N2-(4-(5-methylimidazo[5,1-b][1,3,4]oxadiazol-2-yl)phenyl)-N4-(3-(trifluoromethyl)benzyl) pyrimidine-2,4-diamine] the same measures were 1000 to 2200 nM and “d (d: 10 fold > selectivity)”.
For `Cc1ncc2oc(-c3ccc(NC(=O)Cc4ccc(Cl)c(Cl)c4)cc3)nn12` [Example 77, 2-(3,4-dichlorophenyl)-N-(4-(5-methylimidazo[5,1-b][1,3,4]oxadiazol-2-yl)phenyl)acetamide] the same measures were 100 to 500 nM and “a (a: selectivity ≥ 100 fold)”.
Consider `Cc1ncc2oc(-c3ccc(NC(=O)Cc4ccc(Oc5ccccc5)cc4)cn3)nn12` [Example 78, N-[6-(5-Methyl-imidazo[5,1-b][1,2,4]oxadiazol-2-yl)-pyridin-3-yl]-2-(4-phenoxy-phenyl)-acetamide], for which the concentration for half-maximal inhibition (IC50) in assay [1] is 1000 to 2200 nM. Also, the Abtot/Ab42 selectivity ranges entry in assay [2] is given as “c (c: 50 fold > selectivity ≥ 10 fold)”.
